Source: paper PMC12442099 (ACS Infectious Diseases, 2025)
≈ marks a conversion by molar mass, not a printed value.

Key:
[1] = system: Rcs cell envelope stress response in Escherichia coli; test: Rcs stress reporter assay, HTS format, dose-response curves; format: cell-based; details: for Emax: read-out: Max. effect (%); for EC50: read-out: pEC50 (converted)
Protocol: We adapted the reporter assay based on the Rcs stress system for HTS in a screening program at the ELF as the first bacterial phenotypic screen used in this setting. , The assay was performed in a 1536-well format using 25 μM PMBN as a reference (set at 100% effect).
The ELF screened their extensive and diverse library consisting of >500,000 small molecules at a concentration of 10 μM. The assay window (S/B) and Z’ values remained stable (2.0–15.2 and 0.50–0.90, respectively) throughout the screening campaign. The detailed standard screening procedure of the ELF is outlined elsewhere. An overview of the selection process of the screening campaign performed here is outlined in Figure . Initially, 340 compounds with an effect ≥20% of the reference compound PMBN were considered biologically active. Usually, up to 1% of the input library is selected for confirmatory, dose–response, orthogonal and deselection assays. Because the number of biological actives identified in this assay was well below the 1% limit, no orthogonal assays were performed. Instead, all compounds were reordered and tested as dilution series in the Rcs assay to generate dose–response curves (DRCs). Each compound’s pEC50 (−log of EC50, defined as the concentration (mol/L) at which 50% effect is achieved) was determined, and compounds with a pEC50 ≥ 4.7 were selected for further analysis. Next, the compounds were subjected to a mammalian cell-based cytotoxicity assay to exclude toxic compounds that may have a generic effect on membrane integrity. Compounds that reduced mammalian cell viability by 50% were considered cytotoxic. The qualified hit list (QHL) was then generated following triaging based on LC-MS analysis and pEC50 values.
Overnight cultures (ONCs) were prepared by inoculating 5 mL medium from glycerol stocks and incubating the culture for 16–18 h. ONCs were then diluted to an OD600 of 0.05 and grown until an OD600 of 0.3–0.4 was reached.
Assay robustness was confirmed by testing its sensitivity to assay-interfering agents, including colored, aggregating and fluorescent compounds. […] For HTS, bacteria were diluted 50x in prewarmed medium. Fifteen nL of assay compounds (10 μM), DMSO (0.25%), or the reference compound polymyxin B nonapeptide (PMBN) at 25 μM were added to 1536 well plates. Next, 6 μL culture aliquots were added to assay plates containing compounds. Plates were briefly centrifuged for 1 min at 150 x g. Plates were incubated at 37 °C with high humidity and fluorescence (Ex./Em. λ: 485/528 nm) was measured at T = 0 and T = 150 min using a ClarioStar plate reader (BMG Labtech). For data analysis, T = 0 values were subtracted from T = 150 values to calculate Z-score and % effect compared to the reference compound.
Dose–response curves of the 340 initial active compounds were determined following the preparation of serial dilutions (20 nM–20 μM; 7 points, √10). The % effect compared to the reference compound PMBN was calculated and plotted for each compound dilution. The resulting plots were used to calculate pEC50 (-log(EC50), with EC50 being determined as the concentration at which a 50% effect is observed).

[2] = system: Rcs stress response in E. coli MC4100 (WT, FQR, GEPR); test: Rcs stress reporter assay in MC4100 wildtype and resistant mutants; format: cell-based; details: EC80 concentrations
Text: Serial passaging of E. coli MC4100 in the presence of increasing concentrations of lomefloxacin or gepotidacin yielded resistant variants of E. coli MC4100. We used MC4100 to raise resistance, because unlike the screening strain TOP10F’, this strain has a functional SOS stress response, which has been implicated in developing resistance against quinolones. Compounds also elicited a robust Rcs stress response in E. coli MC4100, allowing for this strain to be used for stress assays.
4 Rcs stress induced by EC80 concentrations of (A) lomefloxacin, (B) gepotidacin, (C) A2, and (D) B1 in wildtype (WT), fluoroquinolone resistant (FQR) or gepotidacin resistant (GEPR) bacteria. Graphs show the fold change in fluorescence adjusted for bacterial growth as determined by OD600. Error bars indicate the standard deviation of triplicate samples. Data are representative of three independent experiments with similar results. […]
For lower throughput analysis under laboratory conditions, cultures grown to OD600 of 0.3–0.4 were diluted to a final concnetration of 0.05 OD600 units/mL in black, clear-bottom 96-well plates (Greiner Bio-One B.V.). Plates were incubated in a Biotek HTX or H1 plate reader (Agilent Technologies) at 37 °C with continuous shaking. Kinetic studies were performed by measuring OD600 and fluorescence (Ex./Em. Λ: 485/528 nm) every 20 min for 10h. For end point measurements, fluorescence was measured at T = 0 and once more at T = 150 min.

[3] = system: E. coli BW25113; test: MIC broth microdilution; format: cell-based; details: Escherichia coli, CAMHB, median of triplicates, read-out: MIC (μg/mL) E. coli BW25113
Protocol: (§1) The antibacterial activity of the compounds was determined by measuring their minimum inhibitory concentration (MIC) values using the broth microdilution method according to the Clinical and Laboratory Standards Institute guidelines (CLSI). Briefly, a single colony from blood agar plates was inoculated into cation-adjusted Mueller-Hinton broth (CAMHB) and grown to OD600 = 0.5. Next, 10^6 CFU/mL were added to a 2-fold serial dilution series of test compounds and incubated at 37 °C, 600 rpm overnight (18–20 h for Gram-negative strains, 20–24 h for Gram-positive strains), after which the plates were visually inspected for bacterial growth. MICs are reported as the median of triplicates.

[4] = system: E. coli TOP10F’; test: MIC broth microdilution; format: cell-based; details: Escherichia coli; screening strain; CAMHB, median of triplicates; read-out: MIC (μg/mL) E. coli TOP10F’
Protocol: as §1

[5] = system: E. coli 25922; test: MIC broth microdilution; format: cell-based; details: Escherichia coli, CAMHB, median of triplicates, read-out: MIC (μg/mL) E. coli 25922
Protocol: as §1

[6] = system: S. aureus USA 300; test: MIC broth microdilution; format: cell-based; details: Staphylococcus aureus, USA300; clinical isolate; CAMHB, median of triplicates; read-out: MIC (μg/mL) S. aureus USA 300
Protocol: as §1

[7] = system: P. aeruginosa 27853; test: MIC broth microdilution; format: cell-based; details: Pseudomonas aeruginosa, clinical isolate, CAMHB, median of triplicates, read-out: MIC (μg/mL) P. aeruginosa 27853
Protocol: as §1

[8] = system: A. baumanni 9955; test: MIC broth microdilution; format: cell-based; details: Acinetobacter baumannii, clinical isolate, CAMHB, median of triplicates, read-out: MIC (μg/mL) A. baumanni 9955
Protocol: as §1

[9] = system: E. coli TOP10F'; test: Growth inhibition after 7 hours (EC80/EC50); details: for EC50 / IC80: Escherichia coli, 7 h; for EC50: read-out: EC50 TOP10F'; for IC80: read-out: EC80 TOP10F'

| SMILES | Emax [1] [%] | EC50 [1] [nM] | Rcs stress in FQR (gyrA S83L) mutant [2] | Rcs stress in GEPR mutant [2] | MIC [3] [µg/mL] | MIC [4] [µg/mL] | MIC [5] [µg/mL] | MIC [6] [µg/mL] | MIC [7] [µg/mL] | MIC [8] [µg/mL] | EC50 [9] [µg/mL] | IC80 [9] [µg/mL] | EC80 concentration ([9]; as quoted in the NPN section) |
| --- | --- | --- | --- | --- | --- | --- | --- | --- | --- | --- | --- | --- | --- |
| O=C1COc2ccc(CNC3CCN(CC4Cc5c(F)cc(F)c6ccc(=O)n4c56)CC3)nc2N1 (stereo not drawn) [B1] | 53.3 | 282 | still exhibited Rcs stress | did not show Rcs stress | 0.25 (≈ 0.519 µM) | < 0.03 | 0.5 (≈ 1.04 µM) | 0.06 (≈ 0.125 µM) | 8 (≈ 16.6 µM) | 0.25 (≈ 0.519 µM) | 0.031 (≈ 0.0644 µM) | 0.5 (≈ 1.04 µM) | – |
| CC(C)(C)n1cc(C(=O)O)c(=O)c2cc(F)c(N3CC4CC3CN4)nc21 (stereo not drawn) [A2] | 26.6 | 107 | lacked Rcs stress | – | 0.06 (≈ 0.166 µM) | < 0.03 | 0.125 (≈ 0.347 µM) | 8 (≈ 22.2 µM) | 1 (≈ 2.77 µM) | 0.5 (≈ 1.39 µM) | 0.016 (≈ 0.0444 µM) | 0.063 (≈ 0.175 µM) | around 0.35 μM |
